Source: patent US8993606B2, “Oral formulations for treating metal overload” (FerroKin BioSciences, Inc., priority 2011, dated 2015)
Where two headings read alike, the source gives them in different places.

Assays:
[1] = tested on: patients with transfusional iron overload; assay: Example 11: efficacy study, serum ferritin; format: in vivo, human
Experimental: The goal of this experiment was to: 1. evaluate the safety and tolerability based on clinical assessments of two doses (16 and 32 mg/kg/d) of Compound 1 when administered daily for 24 weeks to patients with transfusional iron overload; 2. identify a differential response between dose groups in liver iron concentration determined by magnetic resonance imaging (MRI) after 24 weeks of dosing; and 3. assess the safety and efficacy activity of Compound 1 when administered daily for up to 96 weeks.
This experiment is an open-label, randomized study of two dose levels (16 and 32 mg/kg/d) of Compound 1 administered once daily for 24 weeks to eligible patients with transfusional iron overload requiring chelation therapy, with a dosing extension of 72 additional weeks.
Patients were assigned to one of two strate: “high” or “low” transfusion burden based on the average iron intake of the six transfusion sessions. Patients within each transfusion burden groups were randomized to one of two Compound 1 treatment arms: 16 mg/kg/d (16 mpk) or 32 mg/kg/d (32 mpk). The stratification followed by randomization to treatment arms helps to ensure an equal distribution of patients with “high” and “low” transfusion burdens to the high or low dose of Compound 1. Each treatment arm received one dose of Compound 1 daily for 24 weeks.
At the conclusion of the 24 week dosing period, patients who qualify and consent to continue treatment continued for an additional 72 weeks of Compound 1 dosing.
The inclusion of 25 patients in each treatment group provided a statistical power of 0.80 to detect, within 6 months, an LIC difference (normalized for initial LIC) of 3 mg/g dry weight between the two dose groups as determined by MRI. Baseline characteristics between dose groups were compared using Fisher extract test or Wilcoxon rank sum test as appropriate. The change in baseline to week 12, 24, and 72 values for all pharmacodynamics parameters were analyzed by an ANCOVA model with main effect for treatment group with baselines value for the corresponding parameters and transfusion burdon (iron input) during the study and baseline liver iron concentration as covariates comparing the two active treatment groups. T2* values were natural log transformed and summarized as the geometric mean (the antilog of the mean of the log data) plus or minus the co-efficient of variation (CV) defined as square root of eMSE where MSE is defined as the mean square error and subject to ANCOVA setting the p value as the threshold for statistical significance at 0.05 (confidence level of 95%).

[2] = Example 7: high single doses in healthy human subjects (PK); format: in vivo; conditions: fasted; for CL renal / AUC(0-inf) / Cmax / Tmax / Vd/F / half-life: both sexes, human; for CL renal: plasma and urine; for AUC(0-inf) / Cmax / Tmax / Vd/F / half-life: plasma; for Vd/F: read-out: Vz/F; for half-life: read-out: t½ (converted)
Experimental: Subjects were male and female healthy human volunteers aged between 18 and 50 years, free from clinically significant illness or disease as determined by their medical/surgical history, physical examination etc., and having a serum ferritin>20 ng/mL. Subjects were given, in the fasted state, either 30, 40, 50, or 60 mg/kg Compound 1 as a blended formulation of 96% (wt/wt) drug substance (powder) with 3% (wt/wt) croscarmellose sodium and 1% (wt/wt) magnesium stearate dispensed in hard gelatin capsules in strengths of 50 mg, 100 mg, 250 mg, and 375 mg.
The 30 and 50 mg/kg dose groups each contained seven subjects; data from only four of these subjects was used to calculate AUCinf, t½, CL/F, and VZ/F. The 40 and 60 mg/kg dose groups each contained three subjects; data from only three of these subjects was used to calculate AUCinf, t½, CL/F, and VZ/F.
Blood samples of approximately 7 mL were drawn via cannula at 0.25, 0.5, 0.75, 1, 1.25, 1.5, 2, 2.5, 4, 8, 12 and 24 hours post-dose, for pharmacokinetic analysis. (See FIG. 2.) Urine was collected over the time periods 0-4, 4-8, 8-12 and 12-24 hours post-dose for pharmacokinetic and pharmacodynamic assessment.
PK plasma and PK urine samples were assayed by a validated LC/MS/MS method, specific for the determination of Compound 1. Pharmacokinetic parameters for Compound 1 will be calculated using non-compartmental analysis. Only plasma and urine concentrations greater than the lower limits of quantitation (LOQ, 5 ng/mL in plasma and urine) for the assays will be used in the pharmacokinetic analysis.

healthy adult subjects = assay: Safety: bioavailability study oral capsules versus oral solution in healthy subjects; format: in vivo
Experimental: This study was a study in healthy adult subjects designed to compare the bioavailability of Compound 1 when administered as an oral capsule or solution. 24 subjects were enrolled and 22 completed the study: Subjects received a single oral dose of 16 mg/kg of Compound 1 as an oral capsule or as a solution. […] Treatment-emergent AEs were reported for 14 of the 24 subjects receiving Compound 1 (58%). […] TEAEs included headache (3 subjects), fever (2 subjects), nausea (2 subjects), lethargy (2 subjects), and loss of appetite (1 subject).

With `COCCOCCOCCOc1cccc(C2=N[C@@](C)(C(=O)O)CS2)c1O` [Compound 1, (S)-4,5-Dihydro-2-[2-hydroxy-3-(3,6,9-trioxadecyloxy)phenyl]-4-methyl-4-thiazolecarboxylate magnesium hydroxide] the “Serum Ferritin Change from Baseline to Week 72, Geometric Mean” value (from here on “Serum Ferritin Change … Geometric Mean”) ([1]; 16 mg/kg/d group) was 1.14, the “Serum Ferritin Change from Baseline to Week 72, Mean” value ([1]; 16 mg/kg/d group) was 233.21 and the “Serum Ferritin Change from Baseline to Week 72, Median” value (shortened to “Serum Ferritin Change … Median”) ([1]; 16 mg/kg/d group) was 231.50. The “Serum Ferritin Week 72, Geometric Mean” value ([1]; 16 mg/kg/d group) was 2418.49, the “Serum Ferritin Week 72, Mean” value ([1]; 16 mg/kg/d group) was 2873.93 and the “Serum Ferritin Week 72, Median” value ([1]; 16 mg/kg/d group) was 2544.50. For the same molecule, the “Serum Ferritin Change … Geometric Mean” value ([1]; 32 mg/kg/d group) was 0.89, the “Serum Ferritin Change from Baseline to Week 72, Mean” value ([1]; 32 mg/kg/d group) was −150.82 and the “Serum Ferritin Change … Median” value ([1]; 32 mg/kg/d group) was −436.00. The “Serum Ferritin Week 72, Geometric Mean” value ([1]; 32 mg/kg/d group) was 2441.03, the “Serum Ferritin Week 72, Mean” value ([1]; 32 mg/kg/d group) was 3026.82 and the “Serum Ferritin Week 72, Median” value ([1]; 32 mg/kg/d group) was 2396.00. The “Serum Ferritin Change … Geometric Mean” value ([1]; Total) was 0.99, the “Serum Ferritin Change from Baseline to Week 72, Mean” value ([1]; Total) was 22.61 and the “Serum Ferritin Change … Median” value ([1]; Total) was −56.00. The “Serum Ferritin Week 72, Geometric Mean” value ([1]; Total) was 2430.83, the “Serum Ferritin Week 72, Mean” value ([1]; Total) was 2957.77 and the “Serum Ferritin Week 72, Median” value ([1]; Total) was 2398.00. For the same molecule, the CL renal ([2]; single oral dose 30 mg/kg) was 139 ± 13.2 mL/min, the CL renal ([2]; single oral dose 40 mg/kg) was 152 ± 18 mL/min and the CL renal ([2]; single oral dose 50 mg/kg) was 103 ± 16.2 mL/min. The CL renal ([2]; single oral dose 60 mg/kg) was 146 ± 34.4 mL/min, the AUC(0-inf) ([2]; single oral dose 30 mg/kg) was 161 ± 24.1 µg·h/mL and the Cmax ([2]; single oral dose 30 mg/kg) was 68.2 ± 17.5 µg/mL. It also gave a Tmax ([2]; single oral dose 30 mg/kg) of 1 h, a Vd/F ([2]; single oral dose 30 mg/kg) of 248 ± 58.8 L and a half-life ([2]; single oral dose 30 mg/kg) of 726 ± 183 min. For the same molecule, the AUC(0-inf) ([2]; single oral dose 40 mg/kg) was 195 ± 67.3 µg·h/mL, the Cmax ([2]; single oral dose 40 mg/kg) was 87.9 ± 15 µg/mL and the Tmax ([2]; single oral dose 40 mg/kg) was 1.38 h. It also gave a Vd/F ([2]; single oral dose 40 mg/kg) of 542 ± 657 L, a half-life ([2]; single oral dose 40 mg/kg) of 1120 ± 1150 min and an AUC(0-inf) ([2]; single oral dose 50 mg/kg) of 236 ± 58.3 µg·h/mL. The Cmax ([2]; single oral dose 50 mg/kg) was 91.7 ± 18.8 µg/mL, the Tmax ([2]; single oral dose 50 mg/kg) was 1.5 h and the Vd/F ([2]; single oral dose 50 mg/kg) was 338 ± 272 L. It also gave a half-life ([2]; single oral dose 50 mg/kg) of 768 ± 460 min, an AUC(0-inf) ([2]; single oral dose 60 mg/kg) of 227 ± 44.7 µg·h/mL and a Cmax ([2]; single oral dose 60 mg/kg) of 104 ± 36.7 µg/mL. It also gave a Tmax ([2]; single oral dose 60 mg/kg) of 1.25 h, a Vd/F ([2]; single oral dose 60 mg/kg) of 285 ± 159 L and a half-life ([2]; single oral dose 60 mg/kg) of 506 ± 230 min. The CL/F ([2]; single oral dose 30 mg/kg) was 239 ± 17.2 mL/min, the CL/F ([2]; single oral dose 40 mg/kg) was 290 ± 73.8 mL/min and the CL/F ([2]; single oral dose 50 mg/kg) was 286 ± 56.1 mL/min. For the same molecule, the CL/F ([2]; single oral dose 60 mg/kg) was 381 ± 55.8 mL/min, the “subjects with treatment-emergent AEs” value (healthy adult subjects; 14 of the 24 subjects) was 58% and the TEAE fever (healthy adult subjects; 24 subjects) was 2 subjects. The TEAE headache (healthy adult subjects; 24 subjects) was 3 subjects, the TEAE lethargy (healthy adult subjects; 24 subjects) was 2 subjects and the “TEAE loss of appetite” value (healthy adult subjects; 24 subjects) was 1 subject. For the same molecule, the TEAE nausea (healthy adult subjects; 24 subjects) was 2 subjects, the “deaths, SAEs, withdrawals as the result of an AE” value (healthy adult subjects; single oral dose 16 mg/kg) was “no deaths, no SAEs, and no withdrawals as the result of an AE” and the “intensity of all AEs” value (healthy adult subjects; single oral dose 16 mg/kg) was “mild or moderate intensity”. For the same molecule, the tolerability (healthy adult subjects; single oral dose 16 mg/kg, capsule or solution) was “well tolerated”.
